In patent US8252835B2, “Compounds and methods for treating estrogen receptor-related diseases” (Shenogen Pharma Group Ltd., priority 2006, dated 2012):

How the values were obtained:
[1] = test system: Tamoxifen resistant MCF7 cells (MCF7/TAM); assay: Surviving cell count, Tamoxifen resistant MCF7 cells; conditions: two weeks, FIG. 6
LnCap cells = assay: LNCap prostate cancer surviving cell count; type: cell-based; conditions: two weeks, FIG. 10
H226 Lung Cancer Cells = assay: H226 lung cancer surviving cell count; type: cell-based; conditions: two weeks, FIG. 10
[2] = test system: MCF7 cells over-expressing ER-α36 (MCF7/ER36); assay: Surviving cell count, MCF7 cells over-expressing ER-α36; type: cell-based; conditions: two weeks, FIG. 6
Excerpt: MCF7 cells over-expressing ER-α36 were made by stably transfecting MCF cells with an ER-α36 expression vector. The ER-α36 expression vector was constructed by cloning a 1.1-kb cDNA fragment of ER-α36 from pBluescript plasmid into a mammalian expression vector pCB6+ as described before (Wang et al., 2005, BBRC, 336:1023-1027). The constructed ER-α36 expression vector contains the cytomegalovirus (CMV) early promoter. MCF7 cells were transfected with the ER-α36 expression vector using the FuGene6 transfection reagent (Roche Molecular Biochemicals). Forty-eight hours after transfection, the cells were re-plated and selected with 500 μg/ml of G418 (Invitrogen) for about two weeks until colonies appeared. The clones were then pooled and cultured to confirm the expression of ER-α36 by Western blot analysis.

[3] = test system: MDA-MB-231 cell xenografts; assay: MDA-MB-231 xenografts in nude mice, treatment right after implantation; type: in vivo; conditions: 1 mg per mouse twice a week for 36 days, started right after injection, FIG. 13
Experimental: Tumor formation was assayed in female athymic nude mice (6 weeks old, strain CDI nu/nu, Charles River Breeding Laboratory). MDA-MB-231 cells at the concentration of 1×10^7 cells in 200 μl Matrigel (BD Biosciences) were injected into the mice by the mammary fatpad injection. A group of 5 mice were injected with the breast cancer cells. The mice were treated with Icaritin right after the injection. […] Then the mice were sacrificed and the tumor tissues were dissected from the mice, photographed and weighed.

[4] = test system: MDA-MB-231 cell xenografts; assay: MDA-MB-231 xenografts in nude mice, established tumors; type: in vivo; conditions: 5 mg per mouse by gavage every other day for 30 days, FIG. 11
Experimental: (§1) The vial was wrapped with aluminium foil and placed on a rocker at 37° C. for several hours. […] The Icaritin solution was administered to mice using the gavage technique. For gavaging, we used Animal Feeding Needles (Popper; cat No. 9921, size: 20GX1.1/2).
(§2) Tumor formation was assayed in female athymic nude mice (6 weeks old, strain CDI nu/nu, Charles River Breeding Laboratory). MCF7 cells or MDA-MB-231 cells at the concentration of 1×10^7 cells in 200 μl Matrigel (BD Biosciences) were injected into the mice by the mammary fatpad injection. A group of 5 mice were injected with each type of breast cancer cells. […] Tumor disappearance was determined by palpation, and the sizes of tumors were also monitored by measuring two perpendicular diameters with vernier calipers every other day and photographed.

breast cancer cells = conditions: background, literature (Liu 2005; Wang 2004; Ye 2005); cited from earlier work
[5] = test system: human breast cancer BCAP-37 cells xenografts; assay: Human breast cancer BCAP-37 xenografts in nude mice; type: in vivo, BALB/c-nu mice; conditions: 15 days, FIG. 14a
Excerpt: The original nude mice bearing BCAP-37 breast cancer were provided by the Institute of Materia Medica, Chinese Academy of Medical Sciences. Tumor tissues were taken from the mice and cut into small pieces. Several pieces of the tumor tissues were implanted into the armpit under the right front limb of female nude mice (provided by the Division of Experimental Animals of the Medical School of Beijing University). […] Starting on the seventh day, the mice were fed with Icaritin at three dosages. The high dosage was 0.7 mg per mouse per day (about 33 mg/kg/day). The medium dosage was 0.35 mg per mouse per day (about 16.5 mg/kg/day). The low dosage was 0.18 mg per mouse per day (about 8.25 mg/kg/day). […] Olive oil was used as a negative control wherein each mouse was fed with 0.1 ml of olive oil. […] Then the mice were sacrificed and the tumor tissues were dissected from the mice and weighed. Two parallel experiments were done for the tests. Ten female BALB/c-nu mice were used for each test compounds and each dosages for one of the two parallel experiment. Eight female BALB/c-nu mice were used for each test compounds and each dosages for the other parallel experiment. […] The effect of IC 163 on inhibiting breast cancer growth was tested in the same assay as described above. IC 163 was tested at the dosage of 0.7 mg per mouse per day (about 35 mg/kg/day). […] Olive oil was used as a negative control.

PC3 cells = assay: PC3 prostate cancer surviving cell count; type: cell-based; conditions: two weeks, FIG. 10
MDA-MB-231 cells [6] = assay: MDA-MB-231 colony formation, crystal violet staining; type: cell-based; conditions: 10 days, FIG. 4
MCF7 cells [7] = assay: MCF7 surviving cell count (hemocytometer); conditions: two weeks
MCF7 cell xenografts = assay: MCF7 xenografts in nude mice, established tumors; type: in vivo; conditions: 5 mg per mouse by gavage every other day for 15 days, FIG. 12
Experimental: as §1, §2

[8] = test system: human endometrial cancer Hec1A cells; assay: MTT assay of Hec1A cell growth; type: cell-based; conditions: 24 hours
Experimental: Human endometrial cancer Hec1A cells (ATCC No.: HTB-112™) were subseeded in a 96-well culture plate at a concentration of 5×10^3 cells/well and were cultured in DMEM containing high glucose medium (HyClone, SH30022.01B). […] The cells then were incubated with 0.5 mg/ml 3-(4,5-dimethylthiazol-2-yl)-2,5-diphenyltetrazolium bromide (MTT) for 4 hours at 37° C. wherein the MTT was reduced to insoluble purple formazan by the active mitochondrial reductase enzymes in the living cells. Then the excessive liquid MTT was removed from the reaction mixture. 150 μl of DMSO was added to dissolve the purple formazan into a colored solution. The optical density of the colored solution was measured at 490 nm using a microplate reader.

MCF7 cells [9] = assay: MCF7 colony formation; type: cell-based; conditions: zero to 25 μM, as concentration rose, 10 days, FIG. 5a
[10] = test system: cervical cancer U14 cells; assay: Murine cervical cancer U14 tumors in ICR mice; type: in vivo; conditions: 14 days, FIG. 15a
Experimental: The original ICR mice containing cervical cancer U14 cell line were provided by the Institute of Materia Medica, Chinese Academy of Medical Sciences. Five ml of abdominal fluid was drawn from the lower abdomen of the mice. The fluid was diluted at the ratio of 1:5 with saline. 0.2 ml of the diluted abdominal fluid was injected subcutaneously at the right front limb and chest of female ICR mice (provided by the Division of Experimental Animals of the Medical School of Beijing University). After the implantation, the mice were treated right away with Icaritin, Tamoxifen and olive oil, respectively. Icaritin was given at three dosages. The high dosage was 0.7 mg per mouse per day (about 33 mg/kg/day). The medium dosage was 0.35 mg per mouse per day (about 16.5 mg/kg/day). The low dosage was 0.18 mg per mouse per day (about 8.25 mg/kg/day). […] Olive oil was used as a negative control wherein each mouse was fed with 0.1 ml of olive oil. […] Then the mice were sacrificed and the tumor tissues were dissected from the mice and weighed. Ten female ICR mice were used for each test compounds and dosages. Three parallel experiments were carried out. […] The tumor growth inhibition rate was calculated using the same formula as Example 11.

MDA-MB-231 cells [11] = assay: MDA-MB-231 cells treated for a week, examined under microscope; type: cell-based; conditions: 10 μM, one week, FIG. 3
[12] = high dosage 0.7 mg per mouse per day
[13] = low dosage 0.18 mg per mouse per day
[14] = medium dosage 0.35 mg per mouse per day

What does the source list for COc1ccc(-c2oc3c(CC=C(C)C)c(O)cc(O)c3c(=O)c2O)cc1 [Icaritin]?
growth of cells (numbers of survived cells) ([1]; 5 μM): significantly inhibited; inhibition compared with MCF7 cells ([1]; 5 μM): stronger; numbers of cells ([1]; 10 μM): near zero; numbers of cells (LnCap cells; 5 μM): decreased; numbers of cells (LnCap cells; 10 μM): further reduced; numbers of cells (H226 Lung Cancer Cells; 5 μM): decreased; numbers of cells (H226 Lung Cancer Cells; 10 μM): further reduced; growth of cells (numbers of survived cells) ([2]; 5 μM): significantly inhibited; inhibition compared with MCF7 cells ([2]; 5 μM): stronger; numbers of cells ([2]; 10 μM): near zero; tumor size [3]: tumor size reduction; tumor size [4]: significant tumor size reduction; proliferation of breast cancer cells (breast cancer cells): significantly increase; tumor weight compared with negative controls [5, 12]: reduced tumor weights; tumor weight compared with negative controls [5, 13]: reduced tumor weights; tumor weight compared with negative controls [5, 14]: reduced tumor weights; numbers of cells (PC3 cells; 5 μM): decreased; numbers of cells (PC3 cells; 10 μM): further reduced; numbers of colonies of MDA-MB-231 cells (MDA-MB-231 cells [6]; 5 μM): decreased; numbers of colonies of MDA-MB-231 cells (MDA-MB-231 cells [6]; 10 μM): reduced to near zero; numbers of surviving MCF7 cells (MCF7 cells [7]; 5 μM and up, FIG. 5b): significantly reduced; growth of cells (numbers of survived cells) (MCF7 cells [7]; 5 μM, FIG. 6): significantly inhibited; numbers of cells (MCF7 cells [7]; 10 μM, FIG. 6): near zero; tumor size (MCF7 cell xenografts): significant tumor size reduction; effect on the growth of Hec1A cells ([8]; 0 to 5 μM): significant inhibitory effect; optical density at 490 nm (MTT) ([8]; increased concentrations 0 to 5 μM, FIG. 21): declined smoothly; number of colonies of MCF7 cells (MCF7 cells [9]): significantly reduced; tumor weight compared with negative control [10, 12]: reduced tumor weights; tumor weight compared with negative control [10, 13]: reduced tumor weights; tumor weight compared with negative control [10, 14]: reduced tumor weights; cell morphology (MDA-MB-231 cells [11]): features characteristic of apoptotic cells; number of surviving cells (MDA-MB-231 cells [11]): dramatically reduced
